Assay results reported in US20230210846A1, “TREATMENT FOR AMYLOIDOSIS” (Zeno Management,Inc., priority 2020, published 2023).

Tests used:
OPM-2 cells = experiment: Tumor growth study in OPM-2 mouse model; type: in vivo; conditions: OPM-2 subcutaneous model, 100 mg/kg oral gavage once a day, after 10 days
Procedure: It is understood that compound activity in MM models is predictive of activity in amyloidosis (e.g. AL amyloidosis) models and/or patients.
Mice were inoculated with OPM-2 cells subcutaneously on the right flank with the single cell suspension of 95% viable tumor cells (1×10^7) in 200 μL RPMI-1640 Matrigel mixture (1:1 ratio) without serum for the tumor development. The treatment was started when the mean tumor size reached approximately 200 mm^3, with individual tumor size ranging from 180-220 mm^3. Animals were randomly distributed into treatment groups of 10 animals each and dosed with either vehicle (i.e. “Vehicle A”) or a compound of Formula (A) having the structure
(“Compound (A)”) at 100 mg/kg administered by oral gavage once a day. Tumor volumes were evaluated twice per week to calculate tumor volume over time, and mice were weighed twice per week as a surrogate for signs of toxicity. Tumor growth inhibition (TGI) efficiency was calculated using the following equation TGI=(1−(Td−T0)/(Cd−C0))×100%. Td and Cd are the mean tumor volumes of the treated and control animals, and T0 and C0 are the mean tumor volumes of the treated and control animals at the start of the experiment.

KMS-12-BM cells = experiment: Tumor growth study in KMS-12-BM mouse model; type: in vivo; conditions: for tumor growth inhibition (TGI): KMS-12-BM model
Procedure: Tumor volumes were evaluated twice per week to calculate tumor volume over time, and mice were weighed twice per week as a surrogate for signs of toxicity. […] Td and Cd are the mean tumor volumes of the treated and control animals, and T0 and C0 are the mean tumor volumes of the treated and control animals at the start of the experiment.
(§1) Tumor volumes were evaluated twice per week to calculate tumor volume over time, and mice were weighed twice per week as a surrogate for signs of toxicity. Tumor growth inhibition (TGI) was calculated using the following equation TGI=(1−(Td−T0)/(Cd−C0))×100%. Td and Cd are the mean tumor volumes of the treated and control animals, and T0 and C0 are the mean tumor volumes of the treated and control animals at the start of the experiment.
as §1

CC1(C)CCC(CN2CCN(c3ccc(C(=O)NS(=O)(=O)c4ccc(NC[C@H]5CC[C@](C)(O)CC5)c([N+](=O)[O-])c4)c(Oc4cnc5[nH]ccc5c4)c3)CC2)=C(C23CC(C(F)F)(C2)C3)C1 [Compound (A)]
TGI efficacy (tumor growth inhibition) (OPM-2 cells): 46% | tumor growth inhibition (TGI) (KMS-12-BM cells; single agent 50 mg/kg p.o. qd x21, day 14): 48.7% | TGI efficacy (tumor growth inhibition) (KMS-12-BM cells; KMS-12-BM subcutaneous model, single agent 100 mg/kg p.o. qd, day 14): 62.8%

CC(C)C[C@H](NC(=O)[C@H](Cc1ccccc1)NC(=O)c1cnccn1)B(O)O [bortezomib, reference compound]
tumor growth inhibition (TGI) (KMS-12-BM cells; single agent 0.5 mg/kg IP BIW, day 14): 46.5%

C[C@@H]1C[C@H]2[C@@H]3CCC4=CC(=O)C=C[C@]4(C)[C@@]3(F)[C@@H](O)C[C@]2(C)[C@@]1(O)C(=O)CO [dexamethasone, reference compound]
tumor growth inhibition (TGI) (KMS-12-BM cells; single agent 1 mg/kg IP 5 days on 2 days off, day 14): 22.5%
